From patent US9605017B2, “2′, 5′-dideoxy-5-fluorouridine derivatives having cytotoxic activity, a process for the manufacture thereof and application thereof” (ADAM MICKIEWICZ UNIVERSITY, priority 2014, dated 2017)
Converted amounts (≈) assume the structure as drawn. “And” between values parts separate entries of the source, which are not always exact repeats. Equal entries are not always repeated. Where two headings read alike, the source gives them in different places.

Columns and labels:
MCF-7 (breast cancer) = assay: Cytotoxicity test with sulphorhodamine B, 72 h, MCF-7 line; settings: for IC50: Homo sapiens
Description: (§1) Cytotoxic activity tests were performed using the following cancer cell lines: MCF-7 (breast cancer), HeLa (cervical cancer) A549 (lung cancer) and KB (nasopharynx cancer) obtained from ECACC (European Collection of Cell Cultures).
(§2) Cytotoxicity tests were carried out using a standard procedure with sulphorhodamine B. They involved incubation of the cancer cell lines in the logarithmic growth phase for 72 hours with the compound tested and, subsequently, spectrophotometric determination of the degree of cell growth inhibition using adsorption of a dye (sulphorhodamine B) which binds cellular proteins.
(§3) Cells of the cell line tested in the logarithmic growth phase were seeded onto 24-well plates in a quantity of 20,000 cells/2 mL of the growth medium per well and, subsequently, incubated in an incubator at 37° C., in the 5% CO2 atmosphere for 24 hours.
(§4) Solutions of the test compounds were prepared in DMSO in the following concentration range: 0.05; 0.1; 0.5; 1; 5; 10; 50; 100; 500 μM.
(§5) The cells of the lines tested were treated with the solutions of the test compounds in a laminar-flow chamber which ensured sterile working conditions according to the following procedure: the first three wells were used as a control: they contained 20 μL of DMSO only; successive solutions of the test compound were added to subsequent wells (20 μL), starting with the lowest concentration (three wells for each concentration level). Subsequently, the plates were placed in an incubator for 72 hours.
(§6) After the end of incubation, the adhered cells were fixed by adding 500 μL of cold (4° C.) 50% trichloroacetic acid (TCA) and incubated at 4° C. for 1 hour. Subsequently, each well was rinsed with sterile water and dried. The operation was repeated five times. The fixed cells were stained for 30 minutes by adding 500 μL of 0.4% of a dye solution (sulphorhodamine B) dissolved in 1% acetic acid. Any unbound dye was removed by decanting it from the plate, and the cells were washed 4 times with 1% acetic acid. Subsequently, the plates were dried in air for approx. 5 minutes. Any unbound dye was dissolved by adding 1500 μL of 10 mM Tris-base buffer (trishydroxymethylaminomethane) to each well and shaken using an orbital shaker for 5 minutes. Subsequently, 200 μL of solution from each well was transferred to each of two wells on a new 96-well plate and absorption of the solutions was determined spectrophotometrically at a wavelength of 490-530 nm using a plate reader. Percentage inhibition of cell growth by the test compound was calculated assuming the absorption of the control solution as 100%.
(§7) Cytotoxicity tests for the other compounds and cell lines were performed following an identical procedure.
(§8) Depending on the type of the cell line, the following growth media were used: • the MCF-7 line was grown in Dulbecco's Modified Eagle's Medium (DME) from Sigma (cat. no. D5796) • the HeLa, A549 and KB lines were grown in RPMI-1640 Medium from Sigma (cat. no. R8758).
(§9) IC50 values, being concentration of a compound needed to obtain 50% inhibition of cell growth, were determined for all the derivatives tested.
(§10) To enable comparison, identical tests were performed using known cytotoxic agents: 5-fluoro-2′-deoxyuridine, 5-fluorouracil and 5′-azido-2′,5′-dideoxy-5-fluorouridine.
(§11) The values are average results of three independent determinations.

HeLa (cervical cancer) = assay: Cytotoxicity test with sulphorhodamine B, 72 h, HeLa line; settings: for IC50: Homo sapiens, HeLa
Description: as §1, §2, §3, §4, §5, §6, §7, §8, §9, §10, §11

KB (nasopharynx cancer) = assay: Cytotoxicity test with sulphorhodamine B, 72 h, KB line; settings: read-out: Cytotoxic activity, IC50 KB (nasopharynx cancer)
Description: as §1, §2, §3, §4, §5, §6, §7, §8, §9, §10, §11

A549 (lung cancer) = assay: Cytotoxicity test with sulphorhodamine B, 72 h, A549 line; settings: Homo sapiens
Description: as §1, §2, §3, §4, §5, §6, §7, §8, §9, §10, §11

[1] = test system: MCF-7, HeLa, A549 and KB cancer cell lines; assay: Cytotoxic activity tests, overall statement over the four cancer cell lines; settings: in words
Description: as §1, §2, §9, §10

[2] = test system: mouse tumour cells (S-180 line); settings: at concentrations as high as 400 μM; cited from earlier work
[3] = MCF7, 72 h, read-out: Cytotoxic activity, IC50 MCF-7 line (breast cancer)
[4] = MCF7, read-out: Cytotoxic activity class, MCF-7 line (breast cancer)
[5] = 72 h, read-out: Cytotoxic activity, IC50 HeLa (cervical cancer)
[6] = read-out: Cytotoxic activity class, HeLa (cervical cancer)
[7] = A549, 72 h, read-out: Cytotoxic activity, IC50 A549 (lung cancer)
[8] = A549, read-out: Cytotoxic activity class, A549 (lung cancer)

Compound	IC50 (MCF-7 (breast cancer); [3])	IC50 (MCF-7 (breast cancer); [4])	IC50 (HeLa (cervical cancer); [5])	IC50 (HeLa (cervical cancer); [6])	IC50 (KB (nasopharynx cancer))	IC50 (A549 (lung cancer); [7])	IC50 (A549 (lung cancer); [8])	Cytotoxic activity, overall verbal grade [1]	Cytotoxic activity, overall verbal grade ([1]; listed as 5FdU)	Cytotoxic activity, overall verbal grade ([1]; listed as 5FU)	cell growth inhibition [2]	Cytotoxic activity, overall verbal grade ([1]; listed as 5AddFU)	higher activity than 5AddFU, breast cancer cells (MCF-7 (breast cancer); relative to 5AddFU)	higher activity than 5FU, breast cancer cells (MCF-7 (breast cancer); relative to 5FU)	higher activity than 5FdU, breast cancer cells (MCF-7 (breast cancer); relative to 5FdU)	activity compared to 5FU, cervical cancer cells (HeLa (cervical cancer); relative to 5FU)
O=c1[nH]c(=O)n([C@H]2C[C@H](O)[C@@H](CO)O2)cc1F [5-fluoro-2′-deoxyuridine, reference compound]	2.81 µg/mL and 11.4 µM	< 4 µg/mL	3.2 µg/mL and 13 µM	< 4 µg/mL	3.37 µg/mL and 13.7 µM	3.3 µg/mL and 13.4 µM	< 4 µg/mL	medium-activity	Medium cytotoxic activity	–	–	–	–	–	–	–
O=c1[nH]cc(F)c(=O)[nH]1 [5-fluorouracil, reference compound]	2.37 µg/mL and 18.2 µM	< 4 µg/mL	2.73 µg/mL and 21 µM	< 4 µg/mL	2.86 µg/mL and 22 µM	2.78 µg/mL and 21.4 µM	< 4 µg/mL	medium-activity	–	Medium cytotoxic activity	–	–	–	–	–	–
[N-]=[N+]=NC[C@H]1O[C@@H](n2cc(F)c(O)nc2=O)C[C@@H]1O [5′-azido-2′,5′-dideoxy-5-fluorouridine, reference compound]	7.4 µg/mL and 27.3 µM	4 to 30 µg/mL (≈ 14.7 to 111 µM)	7.8 µg/mL and 28.8 µM	4 to 30 µg/mL (≈ 14.7 to 111 µM)	7 µg/mL and 25.8 µM	7 µg/mL and 25.8 µM	4 to 30 µg/mL (≈ 14.7 to 111 µM)	–	–	–	100%	Medium cytotoxic activity	–	–	–	–
O=c1[nH]c(=O)n(C2CC(O)C(Cn3cc(C4C[N@@]5CCC4C[C@H]5[C@H](O)c4ccnc5ccccc45)nn3)O2)cc1F (stereo partly drawn) [CD5AFU, 5-Fluoro-1-(4-hydroxy-5-{4-[6-(hydroxy-quinolin-4-yl-methyl)-1-aza-bicyclo[2.2.2]oct-3-yl]-[1,2,3]triazol-1-ylmethyl}-tetrahydrofuran-2-yl)-1H-pyrimidine-2,4-dione]	11.4 µg/mL and 20.2 µM	4 to 30 µg/mL (≈ 7.1 to 53.2 µM)	13 µg/mL and 23.1 µM	4 to 30 µg/mL (≈ 7.1 to 53.2 µM)	15 µg/mL and 26.6 µM	15.2 µg/mL and 27 µM	4 to 30 µg/mL (≈ 7.1 to 53.2 µM)	–	–	–	–	–	–	–	–	–
O=c1[nH]c(=O)n(C2CC(O)C(Cn3cc(C4CN5CCC4C[C@@H]5[C@@H](O)c4ccnc5ccccc45)nn3)O2)cc1F (stereo partly drawn) [CN5AFU, 5-Fluoro-1-(4-hydroxy-5-{4-[6-(hydroxy-quinolin-4-yl-methyl)-1-aza-bicyclo[2.2.2]oct-3-yl]-[1,2,3]triazol-1-ylmethyl}-tetrahydrofuran-2-yl)-1H-pyrimidine-2,4-dione]	2.8 µg/mL and 4.97 µM	< 4 µg/mL	3.1 µg/mL and 5.5 µM	< 4 µg/mL	2.9 µg/mL and 5.15 µM	3.1 µg/mL and 5.5 µM	< 4 µg/mL	–	–	–	–	–	3 fold	1.4 fold	1.6 fold	comparable activity
